Tested on: P12-Ichikawa
Test: cell viability relative to DMSO control; higher = less cytotoxic
Conditions: 48 h
Summary of the method: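 Leukemia cells (NOMO1 or SEM, 500 cells/well; P12-Ichikawa, 1000 cells/well) were seeded in 5 μl in 1536-well plates after at least four passages of adaptation to each medium. They received library compounds in DMSO by pin dosing, 11 threefold points from 47 μM to 0.79 nM. Luminescence with CellTiter-Glo One was read after 48 h at 37°C. Viability is stated per plate relative to DMSO wells, with cell-free wells as background.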

[1] = HPLM + 10% dialyzed FBS, 0.000781 µM
[2] = HPLM + 10% dialyzed FBS, 0.00234 µM
[3] = HPLM + 10% dialyzed FBS, 0.00702 µM
[4] = HPLM + 10% dialyzed FBS, 0.0211 µM
[5] = HPLM + 10% dialyzed FBS, 0.0632 µM
[6] = HPLM + 10% dialyzed FBS, 0.19 µM
[7] = HPLM + 10% dialyzed FBS, 0.569 µM
[8] = HPLM + 10% dialyzed FBS, 1.71 µM
[9] = HPLM + 10% dialyzed FBS, 5.12 µM
[10] = HPLM + 10% dialyzed FBS, 15.4 µM
[11] = HPLM + 10% dialyzed FBS, 46.1 µM
[12] = RPMI 5 mM glucose + 10% FBS, 0.000781 µM
[13] = RPMI 5 mM glucose + 10% FBS, 0.00234 µM
[14] = RPMI 5 mM glucose + 10% FBS, 0.00702 µM
[15] = RPMI 5 mM glucose + 10% FBS, 0.0211 µM
[16] = RPMI 5 mM glucose + 10% FBS, 0.0632 µM
[17] = RPMI 5 mM glucose + 10% FBS, 0.19 µM
[18] = RPMI 5 mM glucose + 10% FBS, 0.569 µM
[19] = RPMI 5 mM glucose + 10% FBS, 1.71 µM
[20] = RPMI 5 mM glucose + 10% FBS, 5.12 µM
[21] = RPMI 5 mM glucose + 10% FBS, 15.4 µM
[22] = RPMI 5 mM glucose + 10% FBS, 46.1 µM
[23] = RPMI 5 mM glucose + 10% dialyzed FBS, 0.000781 µM
[24] = RPMI 5 mM glucose + 10% dialyzed FBS, 0.00234 µM
[25] = RPMI 5 mM glucose + 10% dialyzed FBS, 0.00702 µM
[26] = RPMI 5 mM glucose + 10% dialyzed FBS, 0.0211 µM
[27] = RPMI 5 mM glucose + 10% dialyzed FBS, 0.0632 µM
[28] = RPMI 5 mM glucose + 10% dialyzed FBS, 0.19 µM
[29] = RPMI 5 mM glucose + 10% dialyzed FBS, 0.569 µM
[30] = RPMI 5 mM glucose + 10% dialyzed FBS, 1.71 µM
[31] = RPMI 5 mM glucose + 10% dialyzed FBS, 5.12 µM
[32] = RPMI 5 mM glucose + 10% dialyzed FBS, 15.4 µM
[33] = RPMI 5 mM glucose + 10% dialyzed FBS, 46.1 µM

## CC(C)(C)NC(=O)[C@@H]1CN(Cc2cccnc2)CCN1C[C@@H](O)C[C@@H](Cc1ccccc1)C(=O)N[C@H]1c2ccccc2C[C@H]1O.O=S(=O)(O)O
[1]
  cell viability: 102%
[2]
  cell viability: 114%
[3]
  cell viability: 115%
[4]
  cell viability: 120%
[5]
  cell viability: 122%
[6]
  cell viability: 115%
[7]
  cell viability: 121%
[8]
  cell viability: 114%
[9]
  cell viability: 112%
[10]
  cell viability: 104%
[11]
  cell viability: 72.6%
[12]
  cell viability: 92.1%
[13]
  cell viability: 103%
[14]
  cell viability: 99.2%
[15]
  cell viability: 111%
[16]
  cell viability: 116%
[17]
  cell viability: 116%
[18]
  cell viability: 116%
[19]
  cell viability: 117%
[20]
  cell viability: 109%
[21]
  cell viability: 98%
[22]
  cell viability: 66.1%
[23]
  cell viability: 105%
[24]
  cell viability: 117%
[25]
  cell viability: 119%
[26]
  cell viability: 123%
[27]
  cell viability: 123%
[28]
  cell viability: 119%
[29]
  cell viability: 121%
[30]
  cell viability: 126%
[31]
  cell viability: 111%
[32]
  cell viability: 99.4%
[33]
  cell viability: 59.2%

## C#C[C@]1(O)CC[C@H]2[C@@H]3CCc4cc(OC)ccc4[C@H]3CC[C@@]21C
[1]
  cell viability: 118%
[2]
  cell viability: 104%
[3]
  cell viability: 111%
[4]
  cell viability: 106%
[5]
  cell viability: 110%
[6]
  cell viability: 98.5%
[7]
  cell viability: 111%
[8]
  cell viability: 102%
[9]
  cell viability: 101%
[10]
  cell viability: 109%
[11]
  cell viability: 98.5%
[12]
  cell viability: 110%
[13]
  cell viability: 101%
[14]
  cell viability: 112%
[15]
  cell viability: 106%
[16]
  cell viability: 113%
[17]
  cell viability: 106%
[18]
  cell viability: 106%
[19]
  cell viability: 108%
[20]
  cell viability: 90.7%
[21]
  cell viability: 111%
[22]
  cell viability: 97.6%
[23]
  cell viability: 103%
[24]
  cell viability: 101%
[25]
  cell viability: 100%
[26]
  cell viability: 107%
[27]
  cell viability: 114%
[28]
  cell viability: 111%
[29]
  cell viability: 107%
[30]
  cell viability: 107%
[31]
  cell viability: 101%
[32]
  cell viability: 102%
[33]
  cell viability: 97.6%
